Two molecules from US20100152285A1, “Flavononol Renin Inhibitor Compounds and Methods of Use Thereof” (HerbalScience Group LLC, priority 2008, published 2010) can be followed below.

The subject of the assay is monocrotaline induced hypertension in rats. Description: Monocrotaline-induced hypertension rat model, tail-cuff blood pressure and pulse. The class given is in vivo, Sprague-Dawley rats. The method, then: Animal Care and Handeling. Sprague-Dawley rats (Charles River Laboratories, Wilmington, Mass.) 60 days old and weighing 140-160 g were utilized. Animals were kept in standard autoclaved rodent cages with ad libitum food (Harlan Teklad Irradiated Rodent Diet) and autoclaved water. The rats were housed on Harlan Tek-chip pelleted paper in static micro isolators maintained at 22° C., 60% relative humidity, and under a 12 h light cycle. The animals were kept at the facility for 5 days to get accustomed to the environment after the arrival from the vendor. All animal care procedures complied with the recommendations of the Guide for Care and Use of Laboratory Animals with respect to restraint, husbandry, surgical procedures, feed and fluid regulation, and veterinary care. Induction of hypertension and the treatment. Rats were injected subcutaneously with monocrotaline (MCT, 60 mg kg^−1) and monitored for 12 days for the development of pulmonary inflammation and initiation of the pulmonary hypertensive response. After the incubation period, Tristenonol aglycone (Cmp. 15 of the present invention) was administrated orally to the animals in three different doses (120, 90, and 60 mg kg^−1 body weights). Blood pressure (BP; Systolic and Diastolic) and heart beats were recorded three times a day 24, 48, and 72 h after administration of compound BP.
Test Articles and Animal Groups. Three doses of Tristenonol aglycone (Cmp 15 of the present invention) were tested. The animals were randomized before and grouped in to 10 animals per group. For positive controls used the commercially available drug Atenol® was used.
Rats were sorted into six groups of ten and treated according to the protocol in Table 1. […] All remaining groups were administered monocrotaline. […] Groups 3, 4 and 5 received Tristenonol aglycone (Cmp 15 of the present invention) at […], 90, and 60 mg respectively per kg body weight 12 days after induction of hypertension with monocrotaline. Positive Control Group 6 was given the commercial drug Atenol® at 120 mg kg^−1.
Systolic blood pressure, diastolic blood pressure and heart beats were recorded in the morning, afternoon and evening three times, 24, 48, and 72 h after Tristenonol aglycone (Cmp 15) and Atenol® administration.
Protocol for the Measurement of the Blood Pressure. A tail-cuff was placed on the tail to occlude the blood flow. Upon deflation a non-invasive blood pressure sensors, placed distal to the occlusion cuff, was utilized to monitor the blood pressure. Volume Pressure Recording. The volume pressure recording sensor utilizes a specially designed differential pressure transducer to non-invasively measure the blood volume in the tail. Volume pressure recording actually measured six blood pressure parameters simultaneously: systolic blood pressure, diastolic blood pressure, mean blood pressure, heart pulse rate, tail blood volume and tail blood flow. […] In addition, volume pressure recording was not dependent on the skin pigmentation of the animal. Dark-skinned animals have no negative effect on volume pressure recording measurements. Special attention was afforded to the length of the occlusion cuff with volume pressure recording in order to derive the most accurate blood pressure readings. Endpoint Measurements. Each animal was sacrificed when the animal reached the predetermined endpoint of being moribund or when the animals remained […]. The animals were observed and if found incapable of eating or drinking or if their body temperature were too low to sustain life, the animals were sacrificed. Treatment efficacy is determined from the reduction in systolic blood pressure, diastolic blood pressure and heart beats of the animal compared to the untreated control group. Toxicity and Necropsy Examination. Animals were weighed daily throughout the experiment. […]

Setting [1] is: 120 mg kg^−1 body weight, rats with monocrotaline.
Where [2] appears, read: monocrotaline 60 mg kg^−1 subcutaneously.

Take `CC(C)NCC(O)COc1ccc(CC(N)=O)cc1` (stereo not drawn) [Atenol®]: under setting [1], the “decrease in Diastolic blood pressure compared to untreated control” value is given as 24-25% and the “reduction in pulse rate compared to untreated controls” value is recorded as 35-36.38%. Also, where the note is “120 mg kg^−1 body weight, rats with monocrotaline, 24-72 h”, the “reduction of mean Systolic blood pressure compared to untreated animals” value is reported as 28%.

As for `C[C@H]1C(=O)O[C@@H]2CCN3CC=C(COC(=O)[C@](C)(O)[C@]1(C)O)[C@H]23` [Monocrotaline, monocrotaline], under setting [2], the “increase in Diastolic blood pressure in injected rats” value is recorded as 49-52%, the “increase in Systolic blood pressure in injected rats” value is given as 40-45% and the “increase in pulse rate in injected animals” value is 60-70%.
